Measurements from the OPERA property sets (Mansouri et al. 2018).
Converted amounts (≈) assume the structure as drawn.

SMILES | solubility (25 °C) | further results
N[C@@H](Cc1cnc[nH]1)C(=O)O | 294000 µM (≈ 45600 µg/mL) | 
COC(=O)[C@H]1[C@H]2C[C@@H]3c4[nH]c5cc(OC)ccc5c4CCN3C[C@H]2C[C@@H](OC(=O)c2cc(OC)c(OC)c(OC)c2)[C@@H]1OC |  | solubility (30 °C): 120 µM (≈ 73 µg/mL)
CC1CCCCC1C (stereo not given) |  | solubility (24 °C): 74.8 µM (≈ 8.4 µg/mL)
Fc1cccc(CCl)c1 | 2860 µM (≈ 414 µg/mL) | 
CCCCCCCCCC | 0.365 µM (≈ 0.052 µg/mL) | 
O=C(O)Cn1c(=O)sc2cccc(Cl)c21 |  | solubility (20 °C): 2460 µM (≈ 600 µg/mL)
Clc1cc(Cl)c(-c2c(Cl)c(Cl)cc(Cl)c2Cl)cc1Cl |  | solubility (20 °C): 0.0114 µM (≈ 0.00451 µg/mL)
C=C(C)CCC | 927 µM (≈ 78 µg/mL) | 
CC(C)CC(C)C | 54.9 µM (≈ 5.5 µg/mL) | 
O=C1NC(=O)C([N+](=O)[O-])C(=O)N1 | 5200 µM (≈ 900 µg/mL) | 
